The results in this text go back to patent US20260274892A1, “MACROCYCLIC BROAD SPECTRUM ANTIBIOTICS” (RQx Pharmaceuticals, Inc., priority 2017, published 2026).

The structures appear in SMILES notation.

The assay relates to Escherichia coli ATCC 25922. Put plainly: Minimum inhibitory concentration (MIC), CLSI broth micro-dilution, E. coli. Format: cell-based. The note with it: Escherichia coli, ATCC25922, 22 h. Summed up:
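Colonies grown 20 h at 35° C on Trypticase Soy agar (MRSA) or Luria agar (E. coli) were suspended in cation-adjusted Mueller Hinton broth with 0.002% Tween-80. Suspensions were added at OD600 0.0005 to 10-point twofold compound dilutions, then incubated 22 h at 35° C.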

[1] abbreviates: Table 6, cation adjusted Mueller Hinton Broth + 0.002% Tween-80, 35° C.

Take `Cc1nc(-c2ccc(C(C)(C)C)cc2)c(C(F)(F)F)cc1C(=O)N[C@@H](CCN)C(=O)N(C)[C@@H]1C(=O)N[C@@H](C)C(=O)N[C@H](C(=O)NCC#N)Cc2ccc(OCCN)c(c2)-c2cc1ccc2OCCN` (racemic) [Compound 537, rac-(8S,11S,14S)-3,18-bis(2-aminoethoxy)-N-(cyanomethyl)-11-methyl-14-[methyl-[rac-(2S)-4-amino-2-[[6-(4-tert-butylphenyl)-2-methyl-5-(trifluoromethyl)pyridine-3-carbonyl]amino]butanoyl]amino]-10,13-dioxo-9,12-diazatricyclo[13.3.1.12,6]icosa-1(18),2(20),3,5,15(19),16-hexaene-8-carboxamide]: under setting [1], the minimal inhibitory concentration (MIC) (commonly the lowest concentration that inhibits growth of the organism) is 0.25 µM. Same read-out and setting: in the case of `Cc1nc(-c2ccc(OCCC(C)(C)C)cc2)cc(N)c1C(=O)N[C@@H](CCN)C(=O)N(C)[C@@H]1C(=O)N[C@@H](C)C(=O)N[C@H](C(=O)NCC#N)Cc2ccc(OCCN)c(c2)-c2cc1ccc2OCCN` (racemic) [Compound 538, rac-(8S,11S,14S)-3,18-bis(2-aminoethoxy)-N-(cyanomethyl)-11-methyl-14-[methyl-[rac-(2S)-4-amino-2-[[4-amino-6-[4-(3,3-dimethylbutoxy)phenyl]-2-methyl-pyridine-3-carbonyl]amino]butanoyl]amino]-10,13-dioxo-9,12-diazatricyclo[13.3.1.12,6]icosa-1(18),2(20),3,5,15(19),16-hexaene-8-carboxamide] it was 0.063 µM; in that of `Cc1nc(-c2cnc(C(C)(C)C)nc2)nc(C)c1C(=O)N[C@@H](CCN)C(=O)N(C)[C@@H]1C(=O)N[C@@H](C)C(=O)N[C@H](C(=O)NCC#N)Cc2ccc(OCCN)c(c2)-c2cc1ccc2OCCN` (racemic) [Compound 540, rac-(8S,11S,14S)-3,18-bis(2-aminoethoxy)-N-(cyanomethyl)-11-methyl-14-[methyl-[rac-(2S)-4-amino-2-[[2-(2-tert-butylpyrimidin-5-yl)-4,6-dimethyl-pyrimidine-5-carbonyl]amino]butanoyl]amino]-10,13-dioxo-9,12-diazatricyclo[13.3.1.12,6]icosa-1(18),2(20),3,5,15(19),16-hexaene-8-carboxamide], 1.5 µM; in that of `Cc1cc(-c2ccc(C(C)(C)C)cc2)cc(C)c1C(=O)N[C@@H](CCN)C(=O)N(C)[C@@H]1C(=O)N[C@@H](C)C(=O)N[C@H](C(=O)NCC#N)Cc2ccc(O)c(c2)-c2cc1ccc2OCCN` (racemic) [Compound 541, rac-(8S,11S,14S)-18-(2-aminoethoxy)-N-(cyanomethyl)-3-hydroxy-11-methyl-14-[methyl-[rac-(2S)-4-amino-2-[[4-(4-tert-butylphenyl)-2,6-dimethyl-benzoyl]amino]butanoyl]amino]-10,13-dioxo-9,12-diazatricyclo[13.3.1.12,6]icosa-1(18),2(20),3,5,15(19),16-hexaene-8-carboxamide], 0.75 µM. As for `Cc1nc(-c2ccc(OC3CCCCC3)cc2)cc(N)c1C(=O)N[C@@H](CCN)C(=O)N(C)[C@@H]1C(=O)N[C@@H](C)C(=O)N[C@H](C(=O)NCC#N)Cc2ccc(OCCN)c(c2)-c2cc1ccc2OCCN` (racemic) [Compound 544, rac-(8S,11S,14S)-3,18-bis(2-aminoethoxy)-N-(cyanomethyl)-11-methyl-14-[methyl-[rac-(2S)-4-amino-2-[[4-amino-6-[4-(cyclohexoxy)phenyl]-2-methyl-pyridine-3-carbonyl]amino]butanoyl]amino]-10,13-dioxo-9,12-diazatricyclo[13.3.1.12,6]icosa-1(18),2(20),3,5,15(19),16-hexaene-8-carboxamide], under setting [1], the MIC was found to be 0.13 µM. Turning to `Cc1nc(-c2ccc(OC3CCCCCC3)cc2)cc(N)c1C(=O)N[C@@H](CCN)C(=O)N(C)[C@@H]1C(=O)N[C@@H](C)C(=O)N[C@H](C(=O)NCC#N)Cc2ccc(OCCN)c(c2)-c2cc1ccc2OCCN` (racemic) [Compound 545, rac-(8S,11S,14S)-3,18-bis(2-aminoethoxy)-N-(cyanomethyl)-11-methyl-14-[methyl-[rac-(2S)-4-amino-2-[[4-amino-6-[4-(cycloheptoxy)phenyl]-2-methyl-pyridine-3-carbonyl]amino]butanoyl]amino]-10,13-dioxo-9,12-diazatricyclo[13.3.1.12,6]icosa-1(18),2(20),3,5,15(19),16-hexaene-8-carboxamide], the minimum inhibitory concentration (MIC) under setting [1] turned out to be 1 µM. In the case of `CCc1nc(-c2ccc(C(C)(C)C)cc2)cc(N)c1C(=O)N[C@@H](CCN)C(=O)N(C)[C@@H]1C(=O)N[C@@H](C)C(=O)N[C@H](C(=O)NCC#N)Cc2ccc(OCCN)c(c2)-c2cc1ccc2OCCN` (racemic) [Compound 546, rac-(8S,11S,14S)-3,18-bis(2-aminoethoxy)-N-(cyanomethyl)-11-methyl-14-[methyl-[rac-(2S)-4-amino-2-[[4-amino-6-(4-tert-butylphenyl)-2-ethyl-pyridine-3-carbonyl]amino]butanoyl]amino]-10,13-dioxo-9,12-diazatricyclo[13.3.1.12,6]icosa-1(18),2(20),3,5,15(19),16-hexaene-8-carboxamide], the MIC under setting [1] stood at 0.38 µM. Turning to `Cc1nc(-c2ccc(OC3CCCCC3)cc2)nc(N)c1C(=O)N[C@@H](CCN)C(=O)N(C)[C@@H]1C(=O)N[C@@H](C)C(=O)N[C@H](C(=O)NCC#N)Cc2ccc(OCCN)c(c2)-c2cc1ccc2OCCN` (racemic) [Compound 547, rac-(8S,11S,14S)-3,18-bis(2-aminoethoxy)-N-(cyanomethyl)-11-methyl-14-[methyl-[rac-(2S)-4-amino-2-[[4-amino-2-[4-(cyclohexoxy)phenyl]-6-methyl-pyrimidine-5-carbonyl]amino]butanoyl]amino]-10,13-dioxo-9,12-diazatricyclo[13.3.1.12,6]icosa-1(18),2(20),3,5,15(19),16-hexaene-8-carboxamide], the MIC under setting [1] is 0.094 µM. As for `Cc1nc(-c2cnc(OCCC(C)(C)C)nc2)nc(C)c1C(=O)N[C@@H](CCN)C(=O)N(C)[C@@H]1C(=O)N[C@@H](C)C(=O)N[C@H](C(=O)NCC#N)Cc2ccc(OCCN)c(c2)-c2cc1ccc2OCCN` (racemic) [Compound 550, rac-(8S,11S,14S)-3,18-bis(2-aminoethoxy)-N-(cyanomethyl)-11-methyl-14-[methyl-[rac-(2S)-4-amino-2-[[2-[2-(3,3-dimethylbutoxy)pyrimidin-5-yl]-4,6-dimethyl-pyrimidine-5-carbonyl]amino]butanoyl]amino]-10,13-dioxo-9,12-diazatricyclo[13.3.1.12,6]icosa-1(18),2(20),3,5,15(19),16-hexaene-8-carboxamide], the MIC under setting [1] came to 2 µM. For the compound `Cc1nc(-c2ccc(C(C)(C)C)cc2)cc(OCC(N)=O)c1C(=O)N[C@@H](CCN)C(=O)N(C)[C@@H]1C(=O)N[C@@H](C)C(=O)N[C@H](C(=O)NCC#N)Cc2ccc(OCCN)c(c2)-c2cc1ccc2OCCN` (racemic) [Compound 551, rac-(8S,11S,14S)-3,18-bis(2-aminoethoxy)-N-(cyanomethyl)-11-methyl-14-[methyl-[rac-(2S)-4-amino-2-[[4-(2-amino-2-oxo-ethoxy)-6-(4-tert-butylphenyl)-2-methyl-pyridine-3-carbonyl]amino]butanoyl]amino]-10,13-dioxo-9,12-diazatricyclo[13.3.1.12,6]icosa-1(18),2(20),3,5,15(19),16-hexaene-8-carboxamide], under setting [1], the MIC is 1 µM.

For the compound `C[C@@H]1NC(=O)[C@@H](N(C)C(=O)[C@H](CCN)NC(=O)c2c(N)cc(-c3ccc(C(C)(C)C)cc3)nc2Cl)c2ccc(OCCN)c(c2)-c2cc(ccc2OCCN)C[C@@H](C(=O)NCC#N)NC1=O` (racemic) [Compound 554, rac-(8S,11S,14S)-3,18-bis(2-aminoethoxy)-N-(cyanomethyl)-11-methyl-14-[methyl-[rac-(2S)-4-amino-2-[[4-amino-6-(4-tert-butylphenyl)-2-chloro-pyridine-3-carbonyl]amino]butanoyl]amino]-10,13-dioxo-9,12-diazatricyclo[13.3.1.12,6]icosa-1(18),2(20),3,5,15(19),16-hexaene-8-carboxamide], under setting [1], the MIC amounted to 0.094 µM. Still for that read-out and setting: in the case of `Cc1nc(-c2ccc(N3[C@H](C)CCC[C@@H]3C)cc2)nc(C)c1C(=O)N[C@@H](CCN)C(=O)N(C)[C@@H]1C(=O)N[C@@H](C)C(=O)N[C@H](C(=O)NCC#N)Cc2ccc(OCCN)c(c2)-c2cc1ccc2OCCN` (racemic) [Compound 555, rac-(8S,11S,14S)-3,18-bis(2-aminoethoxy)-N-(cyanomethyl)-11-methyl-14-[methyl-[rac-(2S)-4-amino-2-[[4,6-dimethyl-2-[4-[rac-(2R,6S)-2,6-dimethyl-1-piperidyl]phenyl]pyrimidine-5-carbonyl]amino]butanoyl]amino]-10,13-dioxo-9,12-diazatricyclo[13.3.1.12,6]icosa-1(18),2(20),3,5,15(19),16-hexaene-8-carboxamide] it was 0.19 µM; in that of `Cc1nc(-c2ccc(C(C)(C)C)cc2)cc(N)c1C(=O)N[C@@H](CCN)C(=O)N(C)[C@@H]1C(=O)N[C@@H](C)C(=O)N[C@H](C(=O)NCC#N)Cc2ccc(OCCN)c(c2)-c2cc1ccc2O` (racemic) [Compound 557, rac-(8S,11S,14S)-3-(2-aminoethoxy)-N-(cyanomethyl)-18-hydroxy-11-methyl-14-[methyl-[rac-(2S)-4-amino-2-[[4-amino-6-(4-tert-butylphenyl)-2-methyl-pyridine-3-carbonyl]amino]butanoyl]amino]-10,13-dioxo-9,12-diazatricyclo[13.3.1.12,6]icosa-1(18),2(20),3,5,15(19),16-hexaene-8-carboxamide], 0.25 µM.

With `Cc1nc(-c2ccc(C(C)(C)C)cc2)nc(C)c1C(=O)N[C@@H](CCN)C(=O)N(C)[C@@H]1C(=O)N[C@@H](C)C(=O)N[C@H](C(=O)NCC#N)Cc2cc(OCCN)c(O)c(c2)-c2cc1ccc2O` (racemic) [Compound 561, (4S,7S,10S)-10-((S)-4-amino-2-(2-(4-(tert-butyl)phenyl)-4,6-dimethylpyrimidine-5-carboxamido)-N-methylbutanamido)-25-(2-aminoethoxy)-N-(cyanomethyl)-16,26-dihydroxy-7-methyl-6,9-dioxo-5,8-diaza-1,2(1,3)-dibenzenacyclodecaphane-4-carboxamide], the minimum inhibitory concentration (MIC) (Table 7, cation adjusted Mueller Hinton Broth + 0.002% Tween-80, 35° C.) was 0.75 µM.
